Measured values: US11053234B2 (GlaxoSmithKline Intellectual Property Development Limited, priority 2016, dated 2021)

biological target: T1, haematopoietic prostaglandin D synthase (H-PGDS) (Homo sapiens, UniProt O60760); assay: H-PGDS RapidFire high throughput mass spectrometry assay (conversion of PGH2 to PGD2); format: biochemical; conditions: 10 nM H-PGDS, PGH2 formed in situ by COX-2 from arachidonic acid; read-out: Potency Range (mean pIC50) (converted)
T1 construct: Full length human H-PGDS cDNA (Invitrogen Ultimate ORF 10H13026) was amplified by PCR; 6-His (N); TEV protease cleavage site (N); made in house; host or cells: E. coli BL21 (DE3*), vector pET22b+
Procedure, shortened: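 RapidFire SPE–MS read-out calculated percent conversion from relative PGD2 and PGF2α (substrate surrogate) levels. Recombinant full-length human H-PGDS (His-tag, E. coli) turned over PGH2, produced in situ at ˜10 μM by human COX-2 (FLAG-tag, Sf9 cells) acting on arachidonic acid.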

T1 sequence (O60760 whole entry): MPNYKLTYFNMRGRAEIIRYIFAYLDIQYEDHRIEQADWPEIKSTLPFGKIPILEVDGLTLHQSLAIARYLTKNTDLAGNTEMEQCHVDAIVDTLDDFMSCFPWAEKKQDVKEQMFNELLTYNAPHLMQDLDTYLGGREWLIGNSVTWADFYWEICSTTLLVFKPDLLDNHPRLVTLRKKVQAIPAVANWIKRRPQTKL

Row | SMILES | IC50 [nM]
1 | O=C(NC1CN(c2ncccn2)C1)[C@H]1C[C@H](Oc2cc(F)cc3scnc23)C1 [Example 133, (trans)-3-((6-Fluorobenzo[d]thiazol-4-yl)oxy)-N-(1-(pyrimidin-2-yl)azetidin-3-yl)cyclobutanecarboxamide] | 10 to 79.4
2 | N#Cc1ccnc(N2CC(NC(=O)N3CC(Oc4cc(F)cc5scnc45)C3)C2)c1 [Example 134] | 10 to 79.4
3 | O=C(NC1CN(c2ncc(F)cn2)C1)N1CC(Oc2cc(F)cc3scnc23)C1 [Example 135, 3-((6-Fluorobenzo[d]thiazol-4-yl)oxy)-N-(1-(5-fluoropyrimidin-2-yl)azetidin-3-yl)azetidine-1-carboxamide] | 10 to 79.4
4 | O=C(NC1CN(c2ncc(F)cn2)C1)[C@H]1C[C@H](Oc2cc(F)cc3scnc23)C1 [Example 136, (trans)-3-((6-Fluorobenzo[d]thiazol-4-yl)oxy)-N-(1-(5-fluoropyrimidin-2-yl)azetidin-3-yl)cyclobutanecarboxamide] | 10 to 79.4
5 | O=C(NC1CN(c2ccccn2)C1)[C@H]1C[C@H](Oc2cc(F)cc3scnc23)C1 [Example 137, (trans)-3-((6-Fluorobenzo[d]thiazol-4-yl)oxy)-N-(1-(pyridin-2-yl)azetidin-3-yl)cyclobutanecarboxamide] | 10 to 79.4
6 | O=C(Nc1nc(C2CC2)cs1)[C@H]1C[C@H](Oc2cccc3scnc23)C1 [Example 138, (trans)-3-(Benzo[d]thiazol-4-yloxy)-N-(4-cyclopropylthiazol-2-yl)cyclobutanecarboxamide] | < 10
7 | CC(C)(O)[C@H]1CC[C@H](NC(=O)[C@H]2C[C@H](Oc3cc(F)cc4scnc34)C2)CC1 [Example 140, (trans)-3-((6-Fluorobenzo[d]thiazol-4-yl)oxy)-N-((trans)-4-(2-hydroxypropan-2-yl)cyclohexyl)cyclobutanecarboxamide] | 10 to 79.4
8 | COc1ccc(F)cc1O[C@H]1C[C@H](C(=O)NN2CCc3ccccc32)C1 [Example 146, (trans)-3-(5-Fluoro-2-methoxyphenoxy)-N-(indolin-1-yl)cyclobutanecarboxamide] | 10 to 79.4
9 | COc1ccc(F)cc1O[C@H]1C[C@H](C(=O)NC2CN(c3ncc(C#N)s3)C2)C1 [Example 147, (trans)-N-(1-(5-Cyanothiazol-2-yl)azetidin-3-yl)-3-(5-fluoro-2-methoxyphenoxy)cyclobutanecarboxamide] | 10 to 79.4
10 | COc1ccc(F)cc1O[C@H]1C[C@H](C(=O)NC2CC3(C2)CN(c2cc(C#N)ccn2)C3)C1 [Example 148, (trans)-N-(2-(4-Cyanopyridin-2-yl)-2-azaspiro[3.3]heptan-6-yl)-3-(5-fluoro-2-methoxyphenoxy)cyclobutanecarboxamide] | 10 to 79.4
11 | COc1ccc(F)cc1O[C@H]1C[C@H](C(=O)NC2CN(c3cc(C#N)ccn3)C2)C1 [Example 149, (trans)-N-(1-(4-Cyanopyridin-2-yl)azetidin-3-yl)-3-(5-fluoro-2-methoxyphenoxy)cyclobutanecarboxamide] | < 10
12 | COc1ccc(F)cc1O[C@H]1C[C@H](C(=O)N[C@H]2CC[C@H](OC)CC2)C1 [Example 150, (trans)-3-(5-Fluoro-2-methoxyphenoxy)-N-((trans)-4-methoxycyclohexyl)cyclobutanecarboxamide] | 10 to 79.4
13 | COc1ccc(F)cc1O[C@H]1C[C@H](C(=O)N[C@H]2CC[C@H](N3CCOCC3=O)CC2)C1 [Example 151, (trans)-3-(5-Fluoro-2-methoxyphenoxy)-N-((trans)-4-(3-oxomorpholino)cyclohexyl)cyclobutanecarboxamide] | 100 to 1000
14 | COc1ccc(F)cc1O[C@H]1C[C@H](C(=O)NC2CCN(c3nnnn3C)CC2)C1 [Example 152, (trans)-3-(5-Fluoro-2-methoxyphenoxy)-N-(1-(1-methyl-1H-tetrazol-5-yl)piperidin-4-yl)cyclobutanecarboxamide] | 10 to 79.4
15 | COc1ccc(F)cc1O[C@H]1C[C@H](C(=O)NC2CCN(c3nccs3)CC2)C1 [Example 154, (trans)-3-(5-Fluoro-2-methoxyphenoxy)-N-(1-(thiazol-2-yl)piperidin-4-yl)cyclobutanecarboxamide] | 10 to 79.4
16 | COc1ccc(F)cc1O[C@H]1C[C@H](C(=O)NC2CCN(c3cc(C#N)ccn3)CC2)C1 [Example 155, (trans)-N-(1-(4-Cyanopyridin-2-yl)piperidin-4-yl)-3-(5-fluoro-2-methoxyphenoxy)cyclobutanecarboxamide] | 10 to 79.4
17 | COc1ccc(CN2CCC(NC(=O)[C@H]3C[C@H](Oc4cc(F)ccc4OC)C3)CC2)cc1Cl [Example 156, (trans)-N-(1-(3-Chloro-4-methoxybenzyl)piperidin-4-yl)-3-(5-fluoro-2-methoxyphenoxy)cyclobutanecarboxamide] | 10 to 79.4
18 | COc1ccc(F)cc1O[C@H]1C[C@H](C(=O)NC2CCN(c3ccccn3)CC2)C1 [Example 157, (trans)-3-(5-Fluoro-2-methoxyphenoxy)-N-(1-(pyridin-2-yl)piperidin-4-yl)cyclobutanecarboxamide] | 10 to 79.4

Row | SMILES | IC50 [nM]
19 | COc1ccc(F)cc1O[C@H]1C[C@H](C(=O)Nc2nc(C(=O)N(C)C)co2)C1 [Example 158, 2-((trans)-3-(5-Fluoro-2-methoxyphenoxy)cyclobutanecarboxamido)-N,N-dimethyloxazole-4-carboxamide] | 10 to 79.4
20 | COc1ccc(F)cc1O[C@H]1C[C@H](C(=O)Nc2cccc(C#N)n2)C1 [Example 159, (trans)-N-(6-Cyanopyridin-2-yl)-3-(5-fluoro-2-methoxyphenoxy)cyclobutanecarboxamide] | 10 to 79.4
21 | COc1ccc(F)cc1O[C@H]1C[C@H](NC(=O)[C@H]2CC[C@H](C(C)(C)O)CC2)C1 [Example 162, (trans)-N-((trans)-3-(5-Fluoro-2-methoxyphenoxy)cyclobutyl)-4-(2-hydroxypropan-2-yl)cyclohexanecarboxamide] | 100 to 1000
22 | COc1ccc(F)cc1O[C@H]1C[C@H](C(=O)Nc2nc(C(C)=O)cs2)C1 [Example 163, (trans)-N-(4-Acetylthiazol-2-yl)-3-(5-fluoro-2-methoxyphenoxy)cyclobutanecarboxamide] | 10 to 79.4
23 | COc1ccc(F)cc1O[C@H]1C[C@H](C(=O)Nc2ncc(C(C)=O)s2)C1 [Example 164, (trans)-N-(5-Acetylthiazol-2-yl)-3-(5-fluoro-2-methoxyphenoxy)cyclobutanecarboxamide] | < 10
24 | COc1ccc(F)cc1O[C@H]1C[C@H](C(=O)Nc2ncc(C(C)(C)O)s2)C1 [Example 165, (trans)-3-(5-Fluoro-2-methoxyphenoxy)-N-(5-(2-hydroxypropan-2-yl)thiazol-2-yl)cyclobutanecarboxamide] | 10 to 79.4
25 | COc1ccc(F)cc1O[C@H]1C[C@H](C(=O)Nc2nnc(C)s2)C1 [Example 166, (trans)-3-(5-Fluoro-2-methoxyphenoxy)-N-(5-methyl-1,3,4-thiadiazol-2-yl)cyclobutanecarboxamide] | 10 to 79.4
26 | COc1ccc(F)cc1O[C@H]1C[C@H](C(=O)Nc2nc(C3CC3)cs2)C1 [Example 167, (trans)-N-(4-Cyclopropylthiazol-2-yl)-3-(5-fluoro-2-methoxyphenoxy)cyclobutanecarboxamide] | < 10
27 | COc1ccc(F)cc1O[C@H]1C[C@H](C(=O)N[C@H]2CC[C@H](C(C)(C)O)CC2)C1 [Example 168, (trans)-3-(5-Fluoro-2-methoxyphenoxy)-N-((trans)-4-(2-hydroxypropan-2-yl)cyclohexyl)cyclobutanecarboxamide] | 10 to 79.4
28 | COc1ccc(F)cc1O[C@H]1C[C@H](C(=O)N[C@H]2CC[C@H](OCC(C)(C)O)CC2)C1 [Example 169, (trans)-3-(5-Fluoro-2-methoxyphenoxy)-N-((trans)-4-(2-hydroxy-2-methylpropoxy)cyclohexyl)cyclobutanecarboxamide] | 10 to 79.4
29 | CCOC(=O)c1coc(NC(=O)[C@H]2C[C@H](Oc3cccc4cccnc34)C2)n1 [Example 171, ethyl 2-((trans)-3-(quinolin-8-yloxy)cyclobutanecarboxamido)oxazole-4-carboxylate] | 10 to 79.4
30 | CN(C)C(=O)c1coc(NC(=O)[C@H]2C[C@H](Oc3cccc4cccnc34)C2)n1 [Example 172, N,N-Dimethyl-2-((trans)-3-(quinolin-8-yloxy)cyclobutanecarboxamido)oxazole-4-carboxamide] | 10 to 79.4
31 | CC(=O)c1cnc(NC(=O)[C@H]2C[C@H](Oc3cccc4cccnc34)C2)o1 [Example 174, (trans)-N-(5-Acetvloxazol-2-yl)-3-(quinolin-8-yloxy)cyclobutanecarboxamide] | 10 to 79.4
32 | Cc1nc(NC(=O)[C@H]2C[C@H](Oc3cccc4cccnc34)C2)oc1C [Example 175, (trans)-N-(4,5-Dimethyloxazol-2-yl)-3-(quinolin-8-yloxy)cyclobutanecarboxamide] | 10 to 79.4
33 | CCOC(=O)c1nnc(NC(=O)[C@H]2C[C@H](Oc3cccc4cccnc34)C2)[nH]1 [Example 176, Ethyl 5-((trans)-3-(quinolin-8-yloxy)cyclobutanecarboxamido)-4H-1,2,4-triazole-3-carboxylate] | 100 to 1000
34 | Cc1cnc(NC(=O)[C@H]2C[C@H](Oc3cccc4cccnc34)C2)o1 [Example 177, (trans)-N-(5-Methyloxazol-2-yl)-3-(quinolin-8-yloxy)cyclobutanecarboxamide] | 10 to 79.4
35 | O=C(Nc1nc(C2CC2)co1)[C@H]1C[C@H](Oc2cccc3cccnc23)C1 [Example 178, (trans)-N-(4-Cyclopropyloxazol-2-yl)-3-(quinolin-8-yloxy)cyclobutanecarboxamide] | 10 to 79.4
36 | CC(C)(C)c1nnc(NC(=O)[C@H]2C[C@H](Oc3cccc4cccnc34)C2)o1 [Example 179, (trans)-N-(5-(tert-Butyl)-1,3,4-oxadiazol-2-yl)-3-(quinolin-8-yloxy)cyclobutanecarboxamide] | 10 to 79.4
